Measured values from patent US8524909B2, “Tetrahydro-pyran derivatives” (Hoffmann-La Roche Inc., priority 2010, dated 2013).

Molecular target: mGlyT-1b (Mus musculus (Mouse), UniProt P28571)
Experiment: Glycine Uptake Inhibition Assay (mGlyT-1b)
Format: cell-based
Conditions: [3H]-glycine uptake in Flp-in-CHO cells stably transfected with mGlyT1b cDNA; 20 min preincubation at 22° C.
Description: DMEM complete medium: Nutrient mixture F-12 (Gibco Life-technologies), fetal bovine serum (FBS) 5%, (Gibco life technologies), Penicillin/Streptomycin 1% (Gibco life technologies), Hygromycin 0.6 mg/ml (Gibco life technologies), Glutamine 1 mM Gibco life technologies)
Uptake buffer (UB): 150 mM NaCl, 10 mM Hepes-Tris, pH 7.4, 1 mM CaCl2, 2.5 mM KCl, 2.5 mM MgSO4, 10 mM (+) D-glucose.
Flp-in™-CHO (Invitrogen Cat no R758-07) cells stably transfected with mGlyT1b cDNA.
Glycine Uptake Inhibition Assay (mGlyT-1b)
On day 1 mammalian cells, (Flp-in™-CHO), transfected with mGlyT-1b cDNA, were plated at the density of 40,000 cells/well in complete F-12 medium, without hygromycin in 96-well culture plates. On day 2, the medium was aspirated and the cells were washed twice with uptake buffer (UB). The cells were then incubated for 20 min at 22° C. with either (i) no potential competitor, (ii) 10 mM non-radioactive glycine, (iii) a concentration of a potential inhibitor. A range of concentrations of the potential inhibitor was used to generate data for calculating the concentration of inhibitor resulting in 50% of the effect (e.g. IC50, the concentration of the competitor inhibiting glycine uptake of 50%). A solution was then immediately added containing [^3H]-glycine 60 nM (11-16 Ci/mmol) and 25 μM non-radioactive glycine. The plates were incubated with gentle shaking and the reaction was stopped by aspiration of the mixture and washing (three times) with ice-cold UB. The cells were lysed with scintillation liquid, shaken 3 hours and the radioactivity in the cells was counted using a scintillation counter.

Sequence of mGlyT-1b (P28571 other isoform, or with tags, fused parts or gaps isoform P28571-2): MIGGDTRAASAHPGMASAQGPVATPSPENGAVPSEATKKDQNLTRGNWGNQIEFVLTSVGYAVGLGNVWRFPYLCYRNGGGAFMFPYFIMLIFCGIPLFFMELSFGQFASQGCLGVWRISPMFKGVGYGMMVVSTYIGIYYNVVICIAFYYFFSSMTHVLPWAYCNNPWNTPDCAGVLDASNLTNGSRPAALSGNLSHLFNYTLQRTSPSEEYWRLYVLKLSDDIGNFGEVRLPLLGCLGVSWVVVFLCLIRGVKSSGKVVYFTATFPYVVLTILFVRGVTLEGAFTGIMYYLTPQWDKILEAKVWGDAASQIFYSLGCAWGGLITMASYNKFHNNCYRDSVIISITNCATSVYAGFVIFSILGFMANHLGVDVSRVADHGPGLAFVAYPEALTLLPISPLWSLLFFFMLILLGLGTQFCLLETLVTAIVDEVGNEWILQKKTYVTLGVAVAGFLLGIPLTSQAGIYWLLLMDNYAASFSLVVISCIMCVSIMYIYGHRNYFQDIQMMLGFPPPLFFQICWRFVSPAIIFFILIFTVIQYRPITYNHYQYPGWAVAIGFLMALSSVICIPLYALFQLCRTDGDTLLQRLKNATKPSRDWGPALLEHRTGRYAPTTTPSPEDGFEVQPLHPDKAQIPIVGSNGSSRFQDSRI

Compound	IC50 [nM]
COc1cc(C(F)(F)F)cc(SC)c1C(=O)N[C@H]1CCOC[C@H]1N1CCCC1 [Example 64, (−)-2-Methoxy-6-methylsulfanyl-N-(3-pyrrolidin-1-yl-tetrahydro-pyran-4-yl)-4-trifluoro-methyl-benzamide]	189
COc1cc(C(F)(F)F)cc(SC)c1C(=O)N[C@@H]1CCOC[C@@H]1N1CCCC1 [Example 65, (+)-2-Methoxy-6-methylsulfanyl-N-(3-pyrrolidin-1-yl-tetrahydro-pyran-4-yl)-4-trifluoro-methyl-benzamide]	119
